Experimental data from patent US20240174714A1, “TREATMENT OF SKIN DISORDERS” (priority 2021, published 2024).
Converted amounts (≈) assume the structure as drawn. Like-named read-outs stand apart in the source and are kept apart here. One block for each molecule: values may come before it. Square brackets hold non-standard residues; d marks the D form. Peptide text beside a SMILES is read from it. * marks the point of attachment. NH((S)CH(Me)CH2NMe2) = C[C@@H](CN(C)C)N*; NH(1-CH2NMe2-cBu) = CN(C)CC1(N*)CCC1; Gly(octyl) = CCCCCCCC[C@H](N)C(=O)O; Oxazole4CO(2-Me) = Cc1nc(C(=O)*)co1; hCha = N[C@@H](CCC1CCCCC1)C(=O)O; X8 = O=C(c1coc(-c2ccccc2)n1)*; X2 = C1CCN(CC2(N*)CCC2)CC1; Aib = CC(C)(N)C(=O)O; βAla = NCCC(=O)O

Assays:
[1] = tested on: Staphylococcus aureus ATCC BAA-1556; assay: microbe, parasite or virus in culture; type: cell-based; conditions: Staphylococcus aureus, ATCCBAA1556; reference compound; ATCC BAA-1556, Methicillin resistant; read-out: MIC (Concurrent)
[2] = tested on: Staphylococcus aureus ECL 2963646; assay: microbe, parasite or virus in culture; type: cell-based; conditions: Staphylococcus aureus, ECL2963646, reference compound, read-out: MIC (Concurrent)
[3] = tested on: Staphylococcus aureus NARSA NRS22; assay: microbe, parasite or virus in culture; type: cell-based; conditions: Staphylococcus aureus, reference compound, read-out: MIC (Concurrent)
[4] = tested on: Staphylococcus aureus NARSA VRS2; assay: microbe, parasite or virus in culture; type: cell-based; conditions: Staphylococcus aureus, reference compound, read-out: MIC (Concurrent)
[5] = tested on: axenic Leishmania donovani MHOM-ET-67/L82 amastigotes; assay: In vitro antiprotozoal assay, axenic amastigotes; type: cell-based; conditions: axenic amastigotes; read-out: L.don.ax. IC50
Method: (§3) The testing of the inventive compounds against Leishmania donovani (strain MHOM/ET/67/L82) was performed in 96 well plates at concentrations in serial dilutions. Tests were done in triplicate.

[6] = tested on: intracellular Leishmania donovani MHOM-ET-67/L82 amastigotes; assay: In vitro antiprotozoal assay, intracellular amastigotes; type: cell-based; conditions: intracellular amastigotes; read-out: L.don.InMac IC50
Method: as §3

rat myoblast cells (L6) = assay: Cytotoxicity assay (Alamar Blue) on L6-cells; type: cell-based
Method: (§1) Tests were done in triplicate.
(§2) The plates were incubated for additional 2 h.

[7] = tested on: Staphylococcus aureus ATCC BAA-1556, USA300 MRSA; assay: microbe, parasite or virus in culture; type: cell-based
Method: Pre-formulated compound solution was diluted in 100% DMSO to prepare a 1.6 mg/mL working stock solution. […] The concentration range was 0.032 to 32 μg/mL.

[8] = tested on: Streptococcus agalactiae ATCC 12386; assay: MIC broth microdilution, method 1; type: cell-based; conditions: Streptococcus agalactiae, ATCC12386, reference compound, read-out: MIC (Concurrent)
[9] = tested on: Streptococcus pyogenes ATCC 19615; assay: MIC broth microdilution, method 1; type: cell-based; conditions: Streptococcus pyogenes, ATCC19615, reference compound, read-out: MIC (Concurrent)
[10] = tested on: Staphylococcus aureus ATCC BAA-1717; assay: microbe, parasite or virus in culture; type: cell-based; conditions: Staphylococcus aureus, ATCCBAA1717, read-out: MIC (Concurrent) μg/mL
[11] = tested on: Staphylococcus aureus ATCC 29213; assay: MIC broth microdilution, method 1; type: cell-based; conditions: Staphylococcus aureus, ATCC29213, reference compound, read-out: MIC (Concurrent)
[12] = tested on: Staphylococcus aureus NARSA NRS119; assay: microbe, parasite or virus in culture; type: cell-based; conditions: Staphylococcus aureus, NRS119, read-out: MIC (Concurrent) μg/mL
[13] = tested on: Staphylococcus aureus NARSA NRS127; assay: microbe, parasite or virus in culture; type: cell-based; conditions: Staphylococcus aureus, NRS127, read-out: MIC (Concurrent) μg/mL
[14] = tested on: Staphylococcus aureus NARSA NRS382; assay: microbe, parasite or virus in culture; type: cell-based; conditions: Staphylococcus aureus, NRS382, read-out: MIC (Concurrent) μg/mL
[15] = tested on: Staphylococcus aureus NARSA NRS383; assay: microbe, parasite or virus in culture; type: cell-based; conditions: Staphylococcus aureus, NRS383, read-out: MIC (Concurrent) μg/mL
[16] = tested on: Staphylococcus aureus ATCC 33591; assay: microbe, parasite or virus in culture; type: cell-based; conditions: Staphylococcus aureus, ATCC33591, read-out: MIC (Concurrent) μg/mL
[17] = tested on: Clostridium difficile ATCC BAA-1805; assay: microbe, parasite or virus in culture; conditions: Clostridioides difficile, ATCCBAA1805, read-out: MIC (Concurrent) μg/mL
Method: The antibacterial activity of inventive compounds was determined in duplicate in a Minimum Inhibitory Concentration (MIC) assay.
The antibacterial activity of 6027 acetate was measured using the in vitro broth microdilution assay under assay conditions described by the Clinical and Laboratory Standards Institute. […] Pre-formulated DMSO stock solution (26.67 mg/mL) was provided by sponsor. The 26.67 mg/mL stock solution was then diluted in DMSO to prepare a 6.4 mg/mL working stock solution. The 6.4 mg/mL working stock solution was diluted by 2-fold serial titrations in DMSO, for a total of 11 test concentrations. A 4 μl aliquot of each dilution was added to 196 of broth medium seeded with the organism suspension in wells of a 96 well plate (bacterial count: 2 −8×10^5 colony forming units/mL final). The final volume was 200 μl in each well and the final DMSO concentration was 2 percent. Test concentrations were 128 to 0.125 μg/mL.
Following incubation, the plates were visually examined, and wells were scored for growth or complete growth inhibition to define the minimum inhibitory concentration. […] Vehicle-control and Vancomycin or Linezolid, as depicted at Table 8, were used as blank and positive controls, respectively.

[18] = tested on: S. aureus (USA300 MRSA, BAA-1556); assay: S. aureus dermal infection model in ICR mice, CFU/skin; type: in vivo, Staphylococcus aureus; conditions: 25 hours post inoculation; topical BID at 1 and 7 h post infection, 20 μL/mouse; 6027 1% in DMSO, fusidic acid 2%
Method: Inoculum preparation. The testing strain, S. aureus USA300 MRSA (BAA-1556), was obtained from the frozen working stock and thawed at room temperature. A 0.2 mL aliquot was inoculated into 20 mL Brain-Heart Infusion broth (BHI) and then incubated at 35-37° C. with shaking (120 rpm) for 8 h. Bacterial cells in the 20 mL culture were pelleted by centrifugation at 3,500×g for 15 minutes and then re-suspended in 10 mL cold PBS (>8.0×10^9 CFU/mL, OD620 1.8-2.0). The culture was then diluted in PBS to the target inoculum of 1.0×10^7 CFU/mL. The actual bacterial counts were determined by plating dilutions onto nutrient agar (NA) plates followed by 20-24 h incubation and colony counting. The actual CFU counts were 1.04×10^7 CFU/mL.
S. aureus (USA300 MRSA, BAA-1556) dermal infection model. Groups of 5 female ICR mice weighing 24±2 g were used. Animals were anesthetized with etomidate-lipuro emulsion (20 mg/10 mL) at 20 mg/kg by intravenous (IV) injection, and then the fur on the back was removed by an electric shaver, and the epidermal layer was disrupted with an abrasive paper. Mice were inoculated topically (TOP) on the wound area with S. aureus (MRSA, BAA-1556) suspension, 5 μL/mouse. The target inoculation density was 5×10^4 CFU/mouse and the actual inoculum count 5.2×10^4 CFU/mouse. Animals were housed separately after infection. Compound 6027 in DMSO at 1% was administered topically (TOP) twice (BID) at 1 and 7 h post infection. Reference control agent, fusidic acid cream at 20 mg/gram (2%), was administered TOP BID at 1 and 7 h post infection. One infected and untreated group was sacrificed at 1 h after infection for the initial (baseline) bacterial counts. The dose volumes were 20 μL/mouse for all dosing groups.
Animals were sacrificed at 1 or 25 h after inoculation with CO2 asphyxiation. The infected skin samples of the wound infection (around 2 cm 2 areas) were excised and were homogenized in 1 mL PBS (pH 7.4) with a polytron homogenizer. A 0.1 mL aliquot of each homogenate was used for serial 10-fold dilutions and plated onto NA plates for bacterial enumeration. The bacterial counts (CFU/skin) in skin tissues were calculated and the percentage decrease in counts compared to the corresponding vehicle control (placebo) was calculated with the following formula: Decrease (%)=[(CFU/skin of placebo —CFU/skin of treatment)/(CFU/skin of placebo)]×100%.

[19] = Cytotoxicity assay (Alamar Blue) on L6-cells; type: cell-based, rat; conditions: rat
Method: as §1, §2

[20] = tested on: Staphylococcus aureus ATCC 43300, MRSA; type: cell-based; conditions: ATCC 43300, 18 h
Method: The antibacterial activity of inventive compounds was evaluated in duplicate in a further Minimum Inhibitory Concentration (MIC) assay.
Bacteria were cultured in Cation-adjusted Mueller Hinton broth (CAMHB) at 37° C. overnight. A sample of each culture was then diluted 40-fold in fresh broth and incubated at 37° C. for 1.5-3 h. The resultant mid-log phase cultures were diluted (CFU/mL measured by OD600), then added to each well of the compound containing plates, giving a cell density of 5×10^5 CFU/mL and a total volume of 50 μL. All the plates were covered and incubated at 37° C. for 18 h without shaking.
Samples were prepared in DMSO and serially diluted 2 fold 8 times. Each sample concentration was prepared in 384-well plates, non-binding surface plate (NBS; Corning 3640) for the bacterial strain ATCC 43300, MRSA. The final DMSO concentration was at a maximum of 0.5%.
Inhibition of bacterial growth was determined measuring absorbance at 600 nm (OD600), using a Tecan M1000 Pro monochromator plate reader. The percentage of growth inhibition was calculated for each well, using the negative control (media only) and positive control (bacteria without inhibitors) on the same plate as references. […] Vancomycin was used as positive bacterial inhibitor standards.

Structure (SMILES): CC(=O)NC[C@H]1CN(c2ccc(N3CCOCC3)c(F)c2)C(=O)O1 [Linezolid, reference compound]
MIC [1]: 2 µg/mL (≈ 5.93 µM)
MIC [2]: 2 µg/mL (≈ 5.93 µM)
MIC [3]: 2 µg/mL (≈ 5.93 µM)
MIC [4]: 2 µg/mL (≈ 5.93 µM)

Structure (SMILES): CN[C@H](CC(C)C)C(=O)N[C@H]1C(=O)N[C@@H](CC(N)=O)C(=O)N[C@H]2C(=O)N[C@H]3C(=O)N[C@H](C(=O)N[C@H](C(=O)O)c4cc(O)cc(O)c4-c4cc3ccc4O)[C@H](O)c3ccc(c(Cl)c3)Oc3cc2cc(c3O[C@@H]2O[C@H](CO)[C@@H](O)[C@H](O)[C@H]2O[C@H]2C[C@](C)(N)[C@H](O)[C@H](C)O2)Oc2ccc(cc2Cl)[C@H]1O [Vancomycin, reference compound]
MIC [8]: 0.5 µg/mL (≈ 0.345 µM)
MIC [9]: 0.25 µg/mL (≈ 0.173 µM)
MIC [10]: 0.5 µg/mL (≈ 0.345 µM)
MIC [11]: 0.5 µg/mL (≈ 0.345 µM)
MIC [12]: 1 µg/mL (≈ 0.69 µM)
MIC [13]: 1 µg/mL (≈ 0.69 µM)
MIC [14]: 1 µg/mL (≈ 0.69 µM)
MIC [15]: 0.5 µg/mL (≈ 0.345 µM)
MIC [16]: 1 µg/mL (≈ 0.69 µM)
MIC ([7]; Staphylococcus aureus): 1 µg/mL (≈ 0.69 µM)
MIC [17]: 0.5 µg/mL (≈ 0.345 µM)

Structure (SMILES): CC(=O)O[C@H]1C[C@@]2(C)[C@@H](C[C@@H](O)[C@H]3[C@@]4(C)CC[C@@H](O)[C@@H](C)[C@@H]4CC[C@@]32C)/C1=C(\CCC=C(C)C)C(=O)O [Fusidic acid, fusidic acid, reference compound]
Decrease (%) in CFU/skin vs vehicle control [18]: 99%
LogCFU/skin after 25 hours (Standard error of the mean − SEM) [18]: 4.82 (0.26) LogCFU/skin

Structure (SMILES): Cc1nc(C(=O)N2CCC[C@H]2C(=O)N[C@@H](CCC2CCCCC2)C(=O)N[C@@H](CC(C)C)C(=O)NC(C)(C)C(=O)N[C@@H](CC(C)C)C(=O)N[C@@H](CC(C)C)C(=O)NC(C)(C)C(=O)NC(C)(C)C(=O)NCCC(=O)NC2(CN3CCCCC3)CCC2)co1 [Compound 6483, (2S)-2-[(2S)-4-cyclohexyl-2-{[(2S)-1-(2-methyl-1,3-oxazole-4-carbonyl)pyrrolidin-2-yl]formamido}butanamido]-4-methyl-N-(1-methyl-1-{[(1S)-3-methyl-1-{[(1S)-3-methyl-1-({1-methyl-1-[(1-methyl-1-{[2-({1-[(piperidin-1-yl)methyl]cyclobutyl}carbamoyl)ethyl]carbamoyl}ethyl)carbamoyl]ethyl}carbamoyl)butyl]carbamyl}butyl]carbamoyl}ethyl)pentanamide] ({Oxazole4CO(2-Me)}-P[hCha]L[Aib]LL[Aib][Aib][βAla]-X2)
IC50 [5]: 4.1 nM
IC50 at 68 h [19]: 486 nM
MIC ([7]; ATCC BAA-1556): 8 µg/mL (≈ 6.62 µM)
MIC [20]: 8 µg/mL (≈ 6.62 µM)

Structure (SMILES): COc1cc([C@@H]2c3cc4c(cc3[C@H](O)[C@H]3COC(=O)[C@H]23)OCO4)cc(OC)c1OC [Podophyllotoxin, reference compound]
IC50 (rat myoblast cells (L6); Rattus norvegicus, Myoblast, read-out: IC50 Concurrent (nM)): 19.3 nM
IC50 (rat myoblast cells (L6); Rattus norvegicus, Myoblast, read-out: IC50 of reference drug): 50 ± 10 nM

The next lines start with results.

IC50 [5]: 9.9 nM
IC50 [6]: 41.1 nM
MIC ([7]; ATCC BAA-1556): 4 µg/mL (≈ 3.43 µM)
Structure (SMILES): Cc1nc(C(=O)N2CCC[C@H]2C(=O)N[C@@H](CCC2CCCCC2)C(=O)N[C@@H](CC(C)C)C(=O)NC(C)(C)C(=O)N[C@@H](CC(C)C)C(=O)N[C@@H](CC(C)C)C(=O)NC(C)(C)C(=O)NC(C)(C)C(=O)NCCC(=O)NC2(CN(C)C)CCC2)co1 [Compound 6025, (2S)-2-[(2S)-4-cyclohexyl-2-{[(2S)-1-(2-methyl-1,3-oxazole-4-carbonyl)pyrrolidin-2-yl]formamido}butanamido]-N-(1-{[(1S)-1-{[(1S)-1-({1-[(1-{[2-({1-[(dimethylamino)methyl]cyclobutyl}carbamoyl)ethyl]carbamoyl}-1-methylethyl)carbamoyl]-1-methylethyl}carbamoyl)-3-methylbutyl]carbamoyl}-3-methylbutyl]carbamoyl}-1-methylethyl)-4-methylpentanamide] ({Oxazole4CO(2-Me)}-P[hCha]L[Aib]LL[Aib][Aib][βAla]-{NH(1-CH2NMe2-cBu)})
IC50 (rat myoblast cells (L6)): 1910 nM

IC50 [5]: 3.7 nM
IC50 [6]: 14.1 nM
Structure (SMILES): CCCCCCCC[C@H](NC(=O)[C@@H]1CCCN1C(=O)c1coc(-c2ccccc2)n1)C(=O)N[C@@H](CC(C)C)C(=O)NC(C)(C)C(=O)N[C@@H](CC(C)C)C(=O)N[C@@H](CC(C)C)C(=O)NC(C)(C)C(=O)NC(C)(C)C(=O)NCCC(=O)N[C@@H](C)CN(C)C [Compound 5906, (2S)-N-[(1S)-1-[(1-{[(1S)-1-{[(1S)-1-{[1-({1-[(2-{[(2S)-1-(dimethylamino)propan-2-yl]carbamoyl}ethyl)carbamoyl]-1-methylethyl}carbamoyl)-1-methylethyl]carbamoyl}-3-methylbutyl]carbamoyl}-3-methylbutyl]carbamoyl}-1-methylethyl)carbamoyl]-3-methylbutyl]-2-{[(2S)-1-(2-phenyl-1,3-oxazole-4-carbonyl)pyrrolidin-2-yl]formamido}decanamide] (X8-P[Gly(octyl)]L[Aib]LL[Aib][Aib][βAla]-{NH((S)CH(Me)CH2NMe2)})
IC50 (rat myoblast cells (L6)): 445 nM
